“Also recorded” adds a separate entry of the source. Read-outs that look alike come from different tables or passages of the source.
How the values were obtained:
[1] = target: HDAC8 (Homo sapiens, UniProt Q9BY41); test: HDAC isoform inhibition, HDAC8; assay type: biochemical
Text: (§1) In contrast to pan-HDAC inhibition, isoform restricted HDAC inhibition revokes immune privilege. HDAC3 has emerged as a key target to enhance immune function: • Decrease in Treg suppressive function • Increase in Natural Killer Cell ligand expression on tumors • Enhance macrophage host defense activity • Upregulation of PD-L1 expression and increased sensitivity to anti-PD1 treatments HDAC6 inhibition has potent immunomodulatory benefits including: • Decrease in expression of the anti-inflammatory cytokine IL-10 • Enhanced expression of MHC class I/II genes and increased expression of known tumor antigens • Decreased immunosuppression and enhanced immune function of melanoma patient T-cells

[2] = test system: G401 human malignant rhabdoid tumor xenografts; test: Malignant rhabdoid tumor xenograft model (G401); assay type: in vivo, mice
Experimental: In vivo treatment of tumors in a malignant rhabdoid tumor xenograft model (G401) was evaluated. In vivo xenograft tumors from MRT line G401 were dosed with (S)-N-hydroxy-2-(2-(4-methoxyphenyl)butanamido)thiazole-5-carboxamide (i.e., GB-3103) for 30 days.

[3] = target: HDAC2 (Homo sapiens, UniProt Q92769); test: HDAC isoform inhibition, HDAC2; assay type: biochemical
Text: as §1

[4] = test system: BIN67; test: CellTiter-Glo cell viability assay, BIN67; assay type: cell-based; details: Homo sapiens; BIN67, 72 hours treatment
Experimental: (§2) Cell viability was measured by the CellTiter -GlO® cell viability assay from Promega (Madison, Wis.). The CellTiter-GlO® Luminescent Cell Viability Assay is a homogeneous method to determine the number of viable cells in culture based on quantitation of the ATP present, which signals the presence of metabolically active cells. Following treatment, CellTiter-GlO® is added to treatment wells and incubated at 37° C. luminescence values were measured at using a Molecular Devices Spectramax microplate reader
(§3) Cells were grown to 70% confluency, trypsinized, counted, and seeded in 96 well flat-bottom plates at a final concentration of 2.5×10^3-5×10^3 cells/well (Day 0). Cells were allowed to incubate in growth media for 24 hours. Treatment with the test agents or standard agents began on Day 1 and continued for 72 hours. At the 72-hour timepoint, treatment containing media was removed. Viable cell numbers are quantified by the CellTiter-GlO® cell viability assay as described above. […]
(§4) For single agent and combination studies, data from each experiment was collected and expressed as % Cell Growth using the following calculation: […]
(§5) Where ftest is the fluorescence of the tested sample, and fvehicle is the fluorescence of the vehicle in which the drug is dissolved. […]

[5] = target: HDAC1 (Homo sapiens, UniProt Q13547); test: HDAC isoform inhibition, HDAC1; assay type: biochemical
Text: as §1

[6] = target: HDAC10 (Homo sapiens, UniProt Q969S8); test: HDAC isoform inhibition, HDAC10; assay type: biochemical
Text: as §1

[7] = test system: H522; test: CellTiter-Glo cell viability assay, H522; assay type: cell-based; details: Homo sapiens, NCI-H522; read-out: anti-proliferative IC50
Experimental: as §2, §3, §4, §5

[8] = target: HDAC7 (Homo sapiens, UniProt Q8WUI4); test: HDAC isoform inhibition, HDAC7; assay type: biochemical
Text: as §1

[9] = test system: Dual SMARCA2 and SMARCA4 deficient cell lines (A204, G401, G402, H522, and A427); test: Proliferation assays, dual SMARCA2 and SMARCA4 deficient cell lines; assay type: cell-based; details: range over A204, G401, G402, H522, A427
Experimental: as §2, §3, §4, §5

[10] = test system: SMARCA2 protein expression in BIN-67 cells; test: SMARCA2 protein expression in treated BIN-67 cells; assay type: cell-based, human; details: in vitro treatment
[11] = test system: BIN67 human tumor xenografts; test: SCCOHT xenograft model (BIN-67); assay type: in vivo, mice; details: for mean tumor regression: BIN67 xenografts in mice, two weeks post-treatment initiation
Experimental: In vivo treatment of tumors in an SCCOHT xenograft model (BIN-67) was evaluated. In vivo xenograft tumors from SCCOHT cell line BIN-67 were dosed with (S)-N-hydroxy-2-(2-(4-methoxyphenyl)butanamido)thiazole-5-carboxamide (i.e., GB-3103) for 60 days.

[12] = test system: CT-26 tumors; test: Syngeneic CT-26 mouse colon cancer model; assay type: in vivo
Text: Given the importance of MHC Class II expression and response to checkpoint inhibitor therapies, we tested the activity of GB-3103 alone and in combination with anti-mPD-1 and anti-mPD-L1 antibodies in a syngeneic CT-26 mouse colon cancer model. […] However, tumor growth resumed on Day 15 and continued to increase until Day 26 (see FIG. 7).

[13] = test system: BIN67 cells; test: RNA-Seq analyses of treated BIN67 cells; assay type: cell-based, human
[14] = test system: A204; test: CellTiter-Glo cell viability assay, A204; assay type: cell-based; details: Homo sapiens, read-out: anti-proliferative IC50
Experimental: as §2, §3, §4, §5

[15] = test system: COV434; test: CellTiter-Glo cell viability assay, COV434; assay type: cell-based; details: Homo sapiens
Experimental: as §2, §3, §4, §5

[16] = test system: A427; test: CellTiter-Glo cell viability assay, A427; assay type: cell-based; details: Homo sapiens, A-427, read-out: anti-proliferative IC50
Experimental: as §2, §3, §4, §5

[17] = target: HDAC4 (Homo sapiens, UniProt P56524); test: HDAC isoform inhibition, HDAC4; assay type: biochemical
Text: as §1

[18] = target: HDAC11 (Homo sapiens, UniProt Q96DB2); test: HDAC isoform inhibition, HDAC11; assay type: biochemical
Text: as §1

[19] = test system: SCCOHT cell lines (BIN67, COV434, and SCCOHT-1); test: Cell proliferation assays, three SCCOHT cell lines; assay type: cell-based; details: Homo sapiens; range over BIN67, COV434, SCCOHT-1
Experimental: as §2, §3, §4, §5

[20] = target: HDAC3 (Homo sapiens, UniProt O15379); test: HDAC isoform inhibition, HDAC3; assay type: biochemical
Text: as §1

[21] = target: HDAC5 (Homo sapiens, UniProt Q9UQL6); test: HDAC isoform inhibition, HDAC5; assay type: biochemical
Text: as §1

[22] = test system: G401; test: CellTiter-Glo cell viability assay, G401; assay type: cell-based; details: Homo sapiens, G-401, read-out: anti-proliferative IC50
Experimental: as §2, §3, §4, §5

[23] = test system: SCCOHT-1; test: CellTiter-Glo cell viability assay, SCCOHT-1; assay type: cell-based; details: Homo sapiens; SCCOHT-1, 72 hours treatment
Experimental: as §2, §3, §4, §5

[24] = test system: G402; test: CellTiter-Glo cell viability assay, G402; assay type: cell-based; details: Homo sapiens, G-402, read-out: anti-proliferative IC50
Experimental: as §2, §3, §4, §5

[25] = target: HDAC6 (Homo sapiens, UniProt Q9UBN7); test: HDAC isoform inhibition, HDAC6; assay type: biochemical
Text: as §1

[26] = test system: SMARCA2 gene expression in BIN-67 cells; test: SMARCA2 gene expression in treated BIN-67 cells; assay type: cell-based, human; details: in vitro treatment
[27] = target: HDAC9 (Homo sapiens, UniProt Q9UKV0); test: HDAC isoform inhibition, HDAC9; assay type: biochemical
Text: as §1

Chain of HDAC6 (Q9UBN7 whole entry, canonical isoform): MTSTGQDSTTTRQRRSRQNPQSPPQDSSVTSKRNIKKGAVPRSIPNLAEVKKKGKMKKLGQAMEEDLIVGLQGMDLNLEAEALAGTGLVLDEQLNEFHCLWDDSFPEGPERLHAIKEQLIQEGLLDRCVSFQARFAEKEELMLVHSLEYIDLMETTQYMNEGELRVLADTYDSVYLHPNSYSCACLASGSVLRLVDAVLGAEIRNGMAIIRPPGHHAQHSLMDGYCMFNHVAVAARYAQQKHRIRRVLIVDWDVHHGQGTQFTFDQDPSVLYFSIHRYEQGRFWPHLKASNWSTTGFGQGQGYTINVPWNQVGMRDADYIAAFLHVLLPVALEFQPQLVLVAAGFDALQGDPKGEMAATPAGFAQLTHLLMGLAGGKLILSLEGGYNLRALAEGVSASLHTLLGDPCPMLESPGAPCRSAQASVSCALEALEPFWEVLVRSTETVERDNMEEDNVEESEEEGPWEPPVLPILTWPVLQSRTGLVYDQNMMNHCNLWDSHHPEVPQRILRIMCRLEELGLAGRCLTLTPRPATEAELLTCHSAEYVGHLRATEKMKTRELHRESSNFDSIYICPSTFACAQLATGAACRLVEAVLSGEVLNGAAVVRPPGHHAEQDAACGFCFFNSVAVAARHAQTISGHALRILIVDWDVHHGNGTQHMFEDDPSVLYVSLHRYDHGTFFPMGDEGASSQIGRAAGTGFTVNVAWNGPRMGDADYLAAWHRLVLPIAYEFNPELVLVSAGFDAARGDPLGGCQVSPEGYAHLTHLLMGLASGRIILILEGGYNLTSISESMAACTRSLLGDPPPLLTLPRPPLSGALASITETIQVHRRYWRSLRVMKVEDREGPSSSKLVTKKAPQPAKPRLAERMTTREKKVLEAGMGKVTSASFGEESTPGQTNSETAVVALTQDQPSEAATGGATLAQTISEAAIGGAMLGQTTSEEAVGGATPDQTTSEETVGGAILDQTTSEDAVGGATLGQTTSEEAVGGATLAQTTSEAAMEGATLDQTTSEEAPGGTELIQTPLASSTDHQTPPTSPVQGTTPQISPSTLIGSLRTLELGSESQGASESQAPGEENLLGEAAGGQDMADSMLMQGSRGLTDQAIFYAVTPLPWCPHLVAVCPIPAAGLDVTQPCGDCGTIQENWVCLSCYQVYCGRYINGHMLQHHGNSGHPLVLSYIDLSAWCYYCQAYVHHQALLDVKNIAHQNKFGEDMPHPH
Chain of HDAC4 (P56524 whole entry, canonical isoform): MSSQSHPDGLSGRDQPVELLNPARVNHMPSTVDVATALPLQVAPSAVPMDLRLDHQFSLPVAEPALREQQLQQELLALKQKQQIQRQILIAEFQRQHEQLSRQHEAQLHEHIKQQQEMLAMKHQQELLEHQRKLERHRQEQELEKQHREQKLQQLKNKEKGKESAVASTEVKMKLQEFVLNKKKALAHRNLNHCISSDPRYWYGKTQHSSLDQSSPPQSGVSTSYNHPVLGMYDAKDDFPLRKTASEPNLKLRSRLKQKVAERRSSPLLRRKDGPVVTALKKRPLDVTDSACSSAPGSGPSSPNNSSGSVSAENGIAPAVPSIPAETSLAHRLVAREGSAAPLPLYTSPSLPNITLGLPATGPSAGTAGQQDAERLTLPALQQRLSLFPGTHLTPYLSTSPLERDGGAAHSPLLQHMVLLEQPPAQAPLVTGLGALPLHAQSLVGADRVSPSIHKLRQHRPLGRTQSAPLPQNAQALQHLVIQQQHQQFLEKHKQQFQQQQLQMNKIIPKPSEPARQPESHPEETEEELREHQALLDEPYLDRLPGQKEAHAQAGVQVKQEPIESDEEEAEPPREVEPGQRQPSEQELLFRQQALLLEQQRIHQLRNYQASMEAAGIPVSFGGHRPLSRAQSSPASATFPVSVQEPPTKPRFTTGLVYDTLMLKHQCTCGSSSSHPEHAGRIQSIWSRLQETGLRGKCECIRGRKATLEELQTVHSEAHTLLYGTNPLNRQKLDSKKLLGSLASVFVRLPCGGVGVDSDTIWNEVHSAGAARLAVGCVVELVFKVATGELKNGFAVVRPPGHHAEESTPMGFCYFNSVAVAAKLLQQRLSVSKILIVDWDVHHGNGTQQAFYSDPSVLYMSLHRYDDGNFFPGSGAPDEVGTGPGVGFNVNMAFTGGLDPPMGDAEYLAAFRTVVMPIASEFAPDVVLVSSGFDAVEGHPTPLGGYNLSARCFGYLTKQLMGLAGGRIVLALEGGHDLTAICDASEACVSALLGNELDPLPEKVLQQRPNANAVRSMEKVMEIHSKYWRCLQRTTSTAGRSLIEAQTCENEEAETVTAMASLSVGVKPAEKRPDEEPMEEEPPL
Chain of HDAC5 (Q9UQL6 whole entry, canonical isoform): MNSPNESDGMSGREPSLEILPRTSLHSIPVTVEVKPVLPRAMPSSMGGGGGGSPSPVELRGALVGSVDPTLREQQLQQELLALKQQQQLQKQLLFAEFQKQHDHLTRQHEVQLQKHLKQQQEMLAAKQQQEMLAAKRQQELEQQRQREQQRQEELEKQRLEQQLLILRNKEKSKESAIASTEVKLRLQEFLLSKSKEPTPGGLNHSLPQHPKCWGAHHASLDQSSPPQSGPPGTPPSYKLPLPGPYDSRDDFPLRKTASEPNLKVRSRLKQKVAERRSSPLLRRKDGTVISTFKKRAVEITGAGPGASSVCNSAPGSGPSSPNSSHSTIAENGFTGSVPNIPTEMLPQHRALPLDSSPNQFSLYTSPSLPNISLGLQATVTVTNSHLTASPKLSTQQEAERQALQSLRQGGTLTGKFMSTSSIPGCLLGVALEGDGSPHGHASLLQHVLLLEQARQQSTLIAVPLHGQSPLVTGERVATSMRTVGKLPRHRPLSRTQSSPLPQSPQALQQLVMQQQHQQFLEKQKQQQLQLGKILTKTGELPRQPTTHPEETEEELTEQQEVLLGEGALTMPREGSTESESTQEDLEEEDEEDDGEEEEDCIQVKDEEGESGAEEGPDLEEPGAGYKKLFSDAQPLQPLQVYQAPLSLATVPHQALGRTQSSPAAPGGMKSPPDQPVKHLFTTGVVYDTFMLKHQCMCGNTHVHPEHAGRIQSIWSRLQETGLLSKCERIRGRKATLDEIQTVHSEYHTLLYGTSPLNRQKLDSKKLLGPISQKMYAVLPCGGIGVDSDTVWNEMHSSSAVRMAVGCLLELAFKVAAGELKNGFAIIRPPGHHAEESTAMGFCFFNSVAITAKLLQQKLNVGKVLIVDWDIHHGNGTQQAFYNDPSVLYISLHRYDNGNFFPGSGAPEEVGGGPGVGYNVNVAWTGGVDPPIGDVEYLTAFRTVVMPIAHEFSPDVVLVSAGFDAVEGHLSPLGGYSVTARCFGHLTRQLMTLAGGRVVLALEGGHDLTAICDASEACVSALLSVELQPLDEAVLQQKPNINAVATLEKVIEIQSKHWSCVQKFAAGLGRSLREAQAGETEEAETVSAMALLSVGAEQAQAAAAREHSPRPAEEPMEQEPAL
Chain of HDAC10 (Q969S8 whole entry, canonical isoform): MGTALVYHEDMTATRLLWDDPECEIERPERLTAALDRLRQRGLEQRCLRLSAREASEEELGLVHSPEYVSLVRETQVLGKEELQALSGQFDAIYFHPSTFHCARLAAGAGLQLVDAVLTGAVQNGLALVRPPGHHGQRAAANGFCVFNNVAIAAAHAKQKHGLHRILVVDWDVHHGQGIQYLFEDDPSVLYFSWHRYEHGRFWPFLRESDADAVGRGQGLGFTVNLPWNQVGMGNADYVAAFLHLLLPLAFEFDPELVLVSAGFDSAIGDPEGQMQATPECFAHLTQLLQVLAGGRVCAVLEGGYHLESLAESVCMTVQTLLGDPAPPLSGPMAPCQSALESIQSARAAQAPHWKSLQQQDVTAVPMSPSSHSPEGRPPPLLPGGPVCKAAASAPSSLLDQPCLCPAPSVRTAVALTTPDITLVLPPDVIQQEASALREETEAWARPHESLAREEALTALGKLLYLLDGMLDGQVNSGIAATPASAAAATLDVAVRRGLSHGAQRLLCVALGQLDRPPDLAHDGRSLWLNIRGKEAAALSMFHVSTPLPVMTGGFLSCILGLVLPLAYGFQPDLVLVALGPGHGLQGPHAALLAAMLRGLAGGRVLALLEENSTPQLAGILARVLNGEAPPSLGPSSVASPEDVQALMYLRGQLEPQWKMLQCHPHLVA
Chain of HDAC9 (Q9UKV0 whole entry, canonical isoform): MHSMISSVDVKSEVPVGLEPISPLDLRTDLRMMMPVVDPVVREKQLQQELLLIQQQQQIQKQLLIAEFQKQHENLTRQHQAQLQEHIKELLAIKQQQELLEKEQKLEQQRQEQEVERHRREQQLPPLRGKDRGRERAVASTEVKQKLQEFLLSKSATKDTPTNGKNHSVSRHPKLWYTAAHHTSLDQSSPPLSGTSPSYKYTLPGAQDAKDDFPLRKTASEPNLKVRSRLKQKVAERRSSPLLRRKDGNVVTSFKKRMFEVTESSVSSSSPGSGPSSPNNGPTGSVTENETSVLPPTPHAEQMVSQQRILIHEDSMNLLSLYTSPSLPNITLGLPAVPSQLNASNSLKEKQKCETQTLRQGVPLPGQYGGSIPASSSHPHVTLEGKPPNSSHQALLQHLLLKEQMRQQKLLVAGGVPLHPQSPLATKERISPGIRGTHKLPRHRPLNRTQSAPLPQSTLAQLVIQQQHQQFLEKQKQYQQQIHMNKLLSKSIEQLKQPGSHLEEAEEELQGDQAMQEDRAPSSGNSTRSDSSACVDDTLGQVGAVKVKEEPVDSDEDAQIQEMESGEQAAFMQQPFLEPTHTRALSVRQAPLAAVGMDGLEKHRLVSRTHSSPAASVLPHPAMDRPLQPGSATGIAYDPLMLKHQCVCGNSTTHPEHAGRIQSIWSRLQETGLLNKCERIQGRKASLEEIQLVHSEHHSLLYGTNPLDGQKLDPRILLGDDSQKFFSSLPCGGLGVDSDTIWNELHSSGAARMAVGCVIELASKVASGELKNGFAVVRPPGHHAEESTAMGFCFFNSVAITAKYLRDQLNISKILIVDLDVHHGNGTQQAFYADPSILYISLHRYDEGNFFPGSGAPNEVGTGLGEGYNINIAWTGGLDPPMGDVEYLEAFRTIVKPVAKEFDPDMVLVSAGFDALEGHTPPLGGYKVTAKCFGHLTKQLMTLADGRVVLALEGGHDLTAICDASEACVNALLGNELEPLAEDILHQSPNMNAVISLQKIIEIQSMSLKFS

`CC[C@H](C(=O)Nc1ncc(C(=O)NO)s1)c1ccc(OC)cc1` [GB-3103, (S)-N-hydroxy-2-(2-(4-methoxyphenyl)butanamido)thiazol-5-carboxamide] was tested, and the IC50 [1] was 133 nM, the “tumor volume compared to vehicle control tumors” value ([2]; G401 xenograft, dosed for 30 days) was “statistically significant decreases in volume” and the “tumor growth inhibition (TGI) compared to vehicle control” value ([2]; G401 xenografts in mice, 5 mg/kg, QD, P<0.05) was 70%. For the same compound, the IC50 [3] was 5.3 nM, the IC50 [4] was 51 nM and the IC50 [5] was 1 nM. It also gave an IC50 [6] of 2.03 nM, an IC50 [7] of 102 nM and an IC50 [8] of 34.5 nM. For the same compound, the IC50 [9] was 50 to 200 nM, the “induction of SMARCA2 protein expression” value [10] was “potent concentration- and time-dependent induction of SMARCA2 expression at both mRNA and protein levels” and the mean tumor regression ([11]; 5 mg/kg QD) was 26%. The mean tumor regression ([11]; 10 mg/kg QD) was 33%, the “tumor volume compared to vehicle control tumors” value ([11]; BIN-67 xenograft, dosed for 60 days) was “statistically significant decreases in volume” and the “effect on established tumors” value ([12]; CT-26 syngeneic model, combined with anti-mPD-1 antibody) was “regression of established CT-26 tumors”. The “effect on established tumors” value ([12]; CT-26 syngeneic model, combined with anti-mPD-L1 antibody) was “regression of established CT-26 tumors”, the TGI ([12]; CT-26 syngeneic model, single agent) was 93% and the “day on which tumor growth resumed” value ([12]; CT-26 syngeneic model, single agent, growth continued until Day 26) was 15 days. The tumor memory response ([12]; alone and in combination with anti-PD-1/anti-PD-L1 checkpoint modulators, mice) was “creates a tumor memory response preventing re-growth of tumors”, the RNA-Seq findings [13] was “affects DNA replication and mRNA stability as well as inducing the expression of MHC Class II proteins” and the IC50 [14] was 95 nM. For the same compound, the IC50 ([15]; COV434, read-out: anti-proliferative IC50) was 35 nM, the IC50 ([15]; COV434, 72 hours treatment, read-out: IC50) was 35 nM and the IC50 [16] was 174 nM. It also gave an IC50 [17] of 138 nM, an IC50 [18] of 5780 nM and an IC50 [19] of 51 to 293 nM. For the same compound, the IC50 [20] was 0.565 nM, the IC50 [21] was 73.5 nM and the IC50 [22] was 138 nM. The IC50 [23] was 293 nM, the IC50 [24] was 71 nM and the IC50 [25] was 0.706 nM. For the same compound, the “mode of inhibition of HDAC6” value [25] was “irreversible”, the “induction of SMARCA2 gene (mRNA) expression” value [26] was “concentration and time dependent induction of SMARCA2 gene re-expression; also recorded: potent concentration- and time-dependent induction of SMARCA2 expression at both mRNA and protein levels” and the IC50 [27] was 187 nM.
